# Values joined by “and” are separate entries in the source; they are usually repeats but may differ in a detail not shown here. Equal values may be shown once. Residues, ends and D or L forms follow the SMILES beside them. No end group written: not given here.
# What was measured:
# P. aeruginosa ATCC 10145 = assay: CFU-assay, P. aeruginosa-cidal activity; assay type: cell-based, Pseudomonas aeruginosa
# S. aureus ATCC 6538 = assay: CFU-assay, S. aureus-cidal activity; assay type: cell-based, Staphylococcus aureus
# Description: (§1) Thus, within the present invention, the antimicrobial activity is generally measured in nutrient deficient 10 mM sodium phosphate buffer pH 5.5, containing 0.25% glucose, using the CFU-assay according to Steinberg and Lehrer, 1997 (supra), unless otherwise indicated. The CFU-assay allows determination of the minimal bactericidal concentration (MBC, e.g., MBC90 and MBC100; i.e. the concentration of compound required to achieve a specified reduction in bacterial cell number (microbial death or killing)).
# Various peptides corresponding to repeat domains of hornerin (HR 1-11: HRNR 2606-2628; HR 1-17: HRNR 2656-2684 and HR 1-18: HRNR 2656-2677) were tested for P. aeruginosa ATCC 10145-cidal activity in 10 mM Na-phosphate buffer pH 5.5, containing 0.25% glucose by counting the numbers of colonies of surviving bacteria at serial, twofold dilutions from 300 μg/ml down to 19 ng/ml of each peptide (CFU-assay; Steinberg and Lehrer, 1997, Methods Mol. Biol. 78, 169-186).
# Staphylococcus aureus is a major skin pathogen, which causes skin infections, in particular in atopic dermatitis. The sensitivity of S. aureus ATCC 6538 towards several CIDAMPs was assessed using the CFU-assay as above (see Example 1). HR 1-18, which lacks S. aureus.-bactericidal activity, is converted in a S. aureus-cidal peptide, when all His are replaced by Arg (HR 1-18 4H-4R; see Table 13 and FIG. 9). […] HR 1-18 4H-4R is rich in Ser and Arg and contains a single Leu residue. When this single Leu was replaced by Gly in S. aureus-cidal HR 1-18 4H-4R (forming HR 1-18 4H-4R/L-G), S. aureus-cidal activity was abolished at both pH 7.0 and pH 5.5 (see Table 13 and FIG. 9).
# C. albicans ATCC 928 = conditions: standard conditions at pH 7.4; activity at concentration <32 pg/ml
# C. neoformans = conditions: standard conditions at pH 7.4; activity at concentration <32 pg/ml
# [1] = Cytotoxicity (resazurin) assay
# Description: For the cytotoxicity (resazurin) assay, HEK293 cells were counted manually in a Neubauer haemocytometer and plated at a density of 4000 cells/well into each well of the 384-well plates containing the 25×(2 μl) concentrated compounds. The medium used was Dulbecco's modified eagle medium (DMEM) supplemented with 10% foetal bovine serum (FBS). Cells were incubated together with the compounds for 20 h at 37° C., 5% CO2. To measure cytotoxicity, 5 μl (equals 100 μM final) resazurin was added to each well after incubation, and incubated for further 3 h at 37° C. with 5% CO2.
# After final incubation fluorescence intensity was measured as F ex 560/10 nm, em 590/10 nm (F560/590) using a Tecan M1000 Pro monochromator plate reader. […] The concentration dependent percentage cytotoxicity was fitted to a dose response function (using Pipeline Pilot) and CC50 values determined.
# Hemolysis assay = assay type: cell-based; conditions: for HC50 at 1 h: human, washed erythrocytes from EDTA-blood, pH 7.4
# Description: For the hemolysis assays EDTA-blood was centrifuged at 800×g for 10 min, and the plasma and buffy coat were removed. The erythrocytes were washed three times and resuspended in 5% PBS, pH 7.4. The cells were then incubated with end-over-end rotation for 1 h at 37° C. in the presence of different concentrations of peptides (0, 3, 10, 30, 60 μm). 0.1% Triton X-100 (Sigma-Aldrich) served as positive control. The samples were then centrifuged at 800×g for 10 min.
# The absorbance of hemoglobin release was measured at 540 nm and is expressed as % of Triton X-100-induced hemolysis. These values of triplicates were plotted with Graph Pad Prism 4 as a dose response curve and the CC50 was determined.
# [2] = test system: Candida albicans ATCC 24433; assay: CFU-assay, Candida albicans-cidal activity; assay type: cell-based
# Description: as §1, with “killing)). […]” for “killing)).”
# HR 1-17 affects C. albicans ATCC 24433 with highest activity at pH 5.5 in the absence of TSB in the medium (see Tables 12, 24). […] Furthermore, the substitution of any of the Arg residues by Gly leads to a dramatic reduction or loss of candidacidal activity (see Table 24).
# [3] = test system: methicillin-resistant S. aureus strain (ATCC 43300); assay type: cell-based, Staphylococcus aureus; conditions: ATCC 43300, 18 h
# Description: Furthermore, sensitivity of a methicillin-resistant S. aureus strain (ATCC 43300) was investigated for palmitoylated CIDAMPs in a microtiter plate screening model, with incubation in Mueller-Hinton medium at 37° C. for 18 h using resazurin as a marker for cell viability.
# A sample of each culture was then diluted 40-fold in fresh broth and incubated at 37° C. for 1.5-3 h. […] All the plates were covered and incubated at 37° C. for 18 h.
# Inhibition of bacterial growth was determined using resazurin as a marker for cell viability. Resazurin was added to each well, at 0.001% final concentration, and plates incubated at 37° C. for 2 h. Fluorescence intensity was measured, using F (top read), ex 560/10 nm, em 590/10 nm, using a Tecan M1000 Pro monochromator plate reader.
compound,measurement,setting,value
GRRGGGGGRGGGRGGRGGGGGR (Modified peptide derived from human hornerin (HR 1-18 GR)),MBC90,"P. aeruginosa ATCC 10145; pH 5.0, 0.25% glucose",<0.019 µg/mL
same,MBC100,"P. aeruginosa ATCC 10145; pH 5.0, 0.25% glucose",0.075 µg/mL
same,MBC90,"P. aeruginosa ATCC 10145; pH 5.5, 0.25% glucose",<0.006 µM
same,MBC100,"P. aeruginosa ATCC 10145; pH 5.5, 0.25% glucose",0.075 μg/ml and 0.04 μM
same,MBC90,"S. aureus ATCC 6538; pH 5.5, 0.25% glucose",>300 µg/mL
same,MBC100,"S. aureus ATCC 6538; pH 5.5, 0.25% glucose",>300 µg/mL
same,"Antifungal activity, C. albcans ATCC90028",C. albicans ATCC 928,I (I-inactive)
same,"Antifungal activity, C. neoformans ATCC 208821",C. neoformans,I (I-inactive)
GRRGSGLGRSSSRGGRGSGSGR [HR 1-18 4H-4R],MBC90,"P. aeruginosa ATCC 10145; pH 5.0, 0.25% glucose",0.038 µg/mL
same,MBC100,"P. aeruginosa ATCC 10145; pH 5.0, 0.25% glucose",0.15 µg/mL
same,P. aeruginosa MBC90,P. aeruginosa ATCC 10145; pH 5.5,0.018 µM
same,P. aeruginosa MBC100,P. aeruginosa ATCC 10145; pH 5.5,0.142 µM
same,MBC90,"P. aeruginosa ATCC 10145; pH 6.0, 0.25% glucose",2.35 µg/mL
same,MBC100,"P. aeruginosa ATCC 10145; pH 6.0, 0.25% glucose",4.7 µg/mL
same,MBC90,"P. aeruginosa ATCC 10145; pH 6.5, 0.25% glucose",2.35 µg/mL
same,MBC100,"P. aeruginosa ATCC 10145; pH 6.5, 0.25% glucose",4.7 µg/mL
same,MBC90,"P. aeruginosa ATCC 10145; pH 7.0, 0.25% glucose",2.38 µg/mL and 2.35 µg/mL
same,MBC100,"P. aeruginosa ATCC 10145; pH 7.0, 0.25% glucose",9.38 µg/mL
same,MBC90,"S. aureus ATCC 6538; pH 5.5, 0.25% glucose",150 µg/mL
same,MBC100,"S. aureus ATCC 6538; pH 5.5, 0.25% glucose",>300 µg/mL
same,S. aureus MBC90,S. aureus ATCC 6538; pH 7.0,4.46 µM
same,S. aureus MBC100,S. aureus ATCC 6538; pH 7.0,>143 µM
same,MBC90,"S. aureus ATCC 6538; pH 7.0, 0.25% glucose",9.35 µg/mL and 9.375 µg/mL
same,MBC100,"S. aureus ATCC 6538; pH 7.0, 0.25% glucose",>300 µg/mL
same,max.killing,"S. aureus ATCC 6538; pH 7.0, 0.25% glucose",max.killing: 98.8%
same,CC50,[1],> 15.2 µM
same,HC50 at 1 h,Hemolysis assay,> 150 µM
HAHSGHGQSTQRGSRTAGRRGSGH (Peptide derived from human filaggrin-2 (FLG-2 2082-2105)) [FLG-22082-2105],MBC90,"P. aeruginosa ATCC 10145; pH 5.5, 0.25% glucose",<0.075 µg/mL
same,MBC100,"P. aeruginosa ATCC 10145; pH 5.5, 0.25% glucose",0.038 µg/mL
same,reduction of candidacidal activity at pH 7.2 versus pH 5.5 (fold),[2]; pH 7.2 vs pH 5.5,~50 fold
GRHGSGLGHSSSHGQHGSGSGR [HR 1-18],CC50/MBC90 (S.aureus),S. aureus ATCC 6538; pH 5.5,No activity
same,CC50,[1],> 32 µg/mL and > 15.2 µM
same,HC50,Hemolysis assay,> 300 µg/mL
same,HC50 at 1 h,Hemolysis assay,> 143 µM
GGHGSGLGHSSSHGQHGSGSGRSSSRGPY (Modified peptide derived from human hornerin (HR 1-17 R2657G)),MBC90,"P. aeruginosa ATCC 10145; pH 5.0, 0.25% glucose",0.0375 µg/mL
same,MBC100,"P. aeruginosa ATCC 10145; pH 5.0, 0.25% glucose",0.3 µg/mL
same,MBC90,"[2]; pH 5.5, 1% TSB",>300 µg/mL
same,MBC100,"[2]; pH 5.5, 1% TSB",>300 µg/mL
N=C(N)NCCC[C@H](NC(=O)[C@H](CCCNC(=N)N)NC(=O)[C@H](CS)NC(=O)[C@H](CCCNC(=N)N)NC(=O)[C@H](Cc1c[nH]cn1)NC(=O)[C@H](CO)NC(=O)[C@H](CCCNC(=N)N)NC(=O)[C@H](CS)NC(=O)[C@H](CS)NC(=O)[C@H](CCCNC(=N)N)NC(=O)[C@H](Cc1c[nH]cn1)NC(=O)[C@H](Cc1c[nH]cn1)NC(=O)[C@@H](N)CO)C(=O)O [LCE3B56-68] (H-SHHRCCRSHRCRR-OH; N-terminus and C-terminus assumed),S. aureus MBC90,S. aureus ATCC 6538; pH 5.5,0.044 µM
same,S. aureus MBC100,S. aureus ATCC 6538; pH 5.5,>88.7 µM
same,MBC90,"S. aureus ATCC 6538; pH 5.5, 0.25% glucose",0.075 µg/mL
same,MBC100,"S. aureus ATCC 6538; pH 5.5, 0.25% glucose",>150 µg/mL
same,max.killing,"S. aureus ATCC 6538; pH 5.5, 0.25% glucose",max.killing: 99.3%
same,MBC90,"S. aureus ATCC 6538; pH 5.5, 0.25% glucose (text)",0.044 µM
same,CC50,[1],> 32 µg/mL and > 18.9 µM
same,CC50,Hemolysis assay,> 300 µg/mL
same,HC50 at 1 h,Hemolysis assay,> 113 µM
same,"Antifungal activity, C. albcans ATCC90028",C. albicans ATCC 928,I (I-inactive)
same,"Antifungal activity, C. neoformans ATCC 208821",C. neoformans,A (A-active)
N=C(N)NCCC[C@H](NC(=O)[C@H](CCCNC(=N)N)NC(=O)[C@H](CS)NC(=O)[C@H](CCCNC(=N)N)NC(=O)[C@H](Cc1c[nH]cn1)NC(=O)[C@H](CO)NC(=O)[C@H](CCCNC(=N)N)NC(=O)[C@H](CS)NC(=O)[C@H](CS)NC(=O)[C@H](CCCNC(=N)N)NC(=O)[C@H](Cc1c[nH]cn1)NC(=O)[C@H](Cc1c[nH]cn1)NC(=O)[C@@H](N)CO)C(=O)O [LCE3B5668] (H-SHHRCCRSHRCRR-OH; N-terminus and C-terminus assumed),"MIC, S. aureus ATCC 43300",[3],≥32 µg/mL

# Reference: patent publication US11479587B2, “Cationic intrinsically disordered antimicrobial peptides” (priority 2016, dated 2022)
